Results taken from PubChem BioAssay (NCI).
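GI50 = concentration required for 50% inhibition of growth. TGI marks complete inhibition of growth.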

Columns and labels:
Assay in all cases: growth of human tumour cells (NCI), 384-well format
786-0 renal = system: 786-0 renal
A498 renal = system: A498 renal
A549 NSCLC = system: A549 NSCLC
BT-549 breast = system: BT-549 breast
CAKI-1 renal = system: CAKI-1 renal
CCRF-CEM leukemia = system: CCRF-CEM leukemia
COLO 205 colon = system: COLO 205 colon
DU-145 prostate = system: DU-145 prostate
EKVX NSCLC = system: EKVX NSCLC
HCC-2998 colon = system: HCC-2998 colon
HCT-116 colon = system: HCT-116 colon
HL-60(TB) leukemia = system: HL-60(TB) leukemia
HOP-62 NSCLC = system: HOP-62 NSCLC
HOP-92 NSCLC = system: HOP-92 NSCLC
HS 578T breast = system: HS 578T breast
IGROV1 ovarian = system: IGROV1 ovarian
K-562 leukemia = system: K-562 leukemia
KM12 colon = system: KM12 colon
LOX IMVI melanoma = system: LOX IMVI melanoma
MDA-MB-231 breast = system: MDA-MB-231 breast
MDA-MB-435 melanoma = system: MDA-MB-435 melanoma
MDA-MB-468 breast = system: MDA-MB-468 breast
MOLT-4 leukemia = system: MOLT-4 leukemia
NCI-H226 lung = system: NCI-H226 lung
NCI-H23 lung = system: NCI-H23 lung
NCI-H322M lung = system: NCI-H322M lung
NCI-H460 NSCLC = system: NCI-H460 NSCLC
NCI-H522 lung = system: NCI-H522 lung
OVCAR-4 ovarian = system: OVCAR-4 ovarian
OVCAR-5 ovarian = system: OVCAR-5 ovarian
OVCAR-8 ovarian = system: OVCAR-8 ovarian
PC-3 prostate = system: PC-3 prostate
SF-268 CNS = system: SF-268 CNS
SF-295 CNS = system: SF-295 CNS
SF-539 CNS = system: SF-539 CNS
SK-MEL-2 melanoma = system: SK-MEL-2 melanoma
SK-MEL-5 melanoma = system: SK-MEL-5 melanoma
SN12C renal = system: SN12C renal
SNB-19 CNS = system: SNB-19 CNS
SNB-75 CNS = system: SNB-75 CNS
SR leukemia = system: SR leukemia
SW-620 colon = system: SW-620 colon
T-47D breast = system: T-47D breast
TK-10 renal = system: TK-10 renal
U251 glioblastoma = system: U251 glioblastoma
UACC-257 melanoma = system: UACC-257 melanoma
UACC-62 melanoma = system: UACC-62 melanoma

## Nc1nc2cc(-c3ccc4ncc(C(=O)N5CCOCC5)n4c3)ccc2o1
786-0 renal
  GI50: > 75.6 µM
  TGI: > 100 µM
A498 renal
  GI50: 5.93 µM
  TGI: > 100 µM
A549 NSCLC
  GI50: 9.11 µM
  TGI: > 100 µM
BT-549 breast
  GI50: 23.7 µM
  TGI: > 100 µM
CAKI-1 renal
  GI50: 6.74 µM
  TGI: > 100 µM
CCRF-CEM leukemia
  GI50: 7.44 µM
  TGI: > 100 µM
COLO 205 colon
  GI50: 10.2 µM
  TGI: > 100 µM
DU-145 prostate
  GI50: 21.3 µM
  TGI: > 100 µM
EKVX NSCLC
  GI50: 5.01 µM
  TGI: > 100 µM
HCC-2998 colon
  GI50: 12.4 µM
  TGI: > 100 µM
HCT-116 colon
  GI50: 5.23 µM
  TGI: > 100 µM
HL-60(TB) leukemia
  GI50: 5.36 µM
  TGI: > 78 µM
HOP-62 NSCLC
  GI50: > 26.4 µM
  TGI: > 100 µM
HOP-92 NSCLC
  GI50: 2.2 µM
  TGI: 18.5 µM
HS 578T breast
  GI50: 6.07 µM
  TGI: 66.2 µM
IGROV1 ovarian
  GI50: 1.85 µM
  TGI: 5.23 µM
K-562 leukemia
  GI50: > 86 µM
  TGI: > 100 µM
KM12 colon
  GI50: 28.7 µM
  TGI: > 100 µM
LOX IMVI melanoma
  GI50: 19.5 µM
  TGI: > 100 µM
MDA-MB-231 breast
  GI50: 9.02 µM
  TGI: > 100 µM
MDA-MB-435 melanoma
  GI50: 24.2 µM
  TGI: > 100 µM
MDA-MB-468 breast
  GI50: 3.93 µM
  TGI: > 92.3 µM
MOLT-4 leukemia
  GI50: 3.45 µM
  TGI: 19.9 µM
NCI-H226 lung
  GI50: > 40.4 µM
  TGI: > 100 µM
NCI-H23 lung
  GI50: 5.59 µM
  TGI: > 100 µM
NCI-H322M lung
  GI50: 6.17 µM
  TGI: > 100 µM
NCI-H460 NSCLC
  GI50: 2.77 µM
  TGI: > 100 µM
NCI-H522 lung
  GI50: 4.05 µM
  TGI: > 74.5 µM
OVCAR-4 ovarian
  GI50: > 40.7 µM
  TGI: > 100 µM
OVCAR-5 ovarian
  GI50: 7.68 µM
  TGI: > 100 µM
OVCAR-8 ovarian
  GI50: > 78.2 µM
  TGI: > 100 µM
PC-3 prostate
  GI50: 5.45 µM
  TGI: > 100 µM
SF-268 CNS
  GI50: 35.1 µM
  TGI: > 100 µM
SF-295 CNS
  TGI: > 95.1 µM
SF-539 CNS
  GI50: > 60.9 µM
  TGI: > 100 µM
SK-MEL-2 melanoma
  GI50: 30 µM
  TGI: > 100 µM
SK-MEL-5 melanoma
  GI50: 5.97 µM
  TGI: > 59.6 µM
SN12C renal
  GI50: 7.67 µM
  TGI: > 100 µM
SNB-19 CNS
  GI50: > 73.8 µM
  TGI: > 100 µM
SNB-75 CNS
  GI50: 10.2 µM
  TGI: > 75 µM
SR leukemia
  GI50: 12.2 µM
  TGI: > 100 µM
SW-620 colon
  GI50: 17.7 µM
  TGI: > 91.4 µM
T-47D breast
  GI50: 0.574 µM
  TGI: 3.14 µM
TK-10 renal
  GI50: 5.17 µM
  TGI: 53.7 µM
U251 glioblastoma
  GI50: > 74.7 µM
  TGI: > 100 µM
UACC-257 melanoma
  GI50: > 100 µM
  TGI: > 100 µM
UACC-62 melanoma
  GI50: 66.4 µM
  TGI: > 100 µM
